Consider 9 compounds from US11339193B2, “CDP protein secretion inhibitors” (KEZAR LIFE SCIENCES, priority 2018, dated 2022).

Holding throughout (assay type): cell-based
Assay [1] has as its system JJN3 plasma cell leukemia cell line. As to the kind of experiment: JJN-3 assay (Alamar blue). The following applies: Homo sapiens, 72 h. How it is done:
(§1) BT474 is a human breast tumor cell line. JJN3 is a human plasma cell leukemia cell line. […] Cells were seeded at 100 000 cells/mL. Aliquots of 5000 cells (50 μL) were added to each well in black, clear bottom 96-well plates. Compounds or control (50 uL of 1% DMSO in cell culture medium) were added to the cells to the indicated final concentrations and cells were incubated for 72 h (unless otherwise specified). After incubation was complete, Alamar blue (10 uL of a 1 mg/mL solution) was added to each well and plates were incubated for 5 h. Fluorescence was then measured (excitation 545 nm, emission 590 nm) and is reported as […] normalized to DMSO control.

In a further assay the test system is HER3ss-Gluc. Nature of the assay: HER3ss assay. In short, it runs like this: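 HEK-293T T-REx cells were transiently transfected with HER3 signal sequence (plus four mature-domain residues) fused upstream of mature Gaussia luciferase. Cells were induced with doxycycline (1 μg/ml) and exposed to increasing compound concentrations for 24 h, then secreted luciferase in the conditioned medium was read by luminescence.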

The subject of assay [2] is PD1-ss+10aa/Gaussia Luciferase. As to the kind of experiment: Dox induced PD1-ss-Gluc assay. The method, boiled down:
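Stable Flp-In 293 T-REx line expressing doxycycline-inducible Gaussia luciferase fused to the PD1 signal sequence plus 10 amino acids. Cells plated the day before, then exposed to compound dilutions in DMSO/media containing doxycycline at 37 °C, 5% CO2.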

Assay [3] deals with VCAMss+10aa/Gaussia Luciferase. Nature of the assay: VCAM-ss-Gluc assay (constitutively active or Dox induced). The following applies: Flp-In 293 T-REx cells, 24 hours. The protocol: Assays Constitutively Active VCAM-ss-Gluc Assay
Transfected cells were selected for resistance to the selectable markers Hygromycin and Blasticidin to create a stable cell line that constitutively expressed the VCAMss+ 10aa/Gaussia Luciferase fusion protein. The day before assay, cells were trypsinized and plated in 384-well tissue culture plates. The next day, culture media was removed from the wells and replaced with fresh media. Compound dilutions in DMSO/media were added to the wells and incubated at 37° C., 5% CO2.
Dox Induced VCAM-ss-Gluc Assay
Transfected cells were selected for resistance to the selectable markers Hygromycin and Blasticidin to create a stable cell line that contained the VCAMss+10aa/Gaussia Luciferase cDNA insert whose expression was regulated under the T-REx™ system. The day before assay, cells were trypsinized and plated in 384-well tissue culture plates. The next day, compound dilutions in DMSO/media containing doxycycline were added to the wells and incubated at 37° C., 5% CO2.

The subject of assay [4] is NCI-H929 multiple myeloma cell line. As to the kind of experiment: H929 assay (cell viability, Celltiter-Glo). The conditions noted are these: Homo sapiens, read-out: H929 EC50. The method, boiled down:
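Cells plated in RPMI 1640 with 10% FBS and 2 mM glutamine, treated with compound dilutions in DMSO/media. Incubation 48 h at 37° C, 5% CO2. Viability from luciferase luminescence signal.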

The test system of assay [5] is Prl-ss+10aa/Gaussia Luciferase. As to the kind of experiment: Prl-ss-Gluc assay (constitutively active or 24 hr Dox inducible). In short, it runs like this: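 Stable Flp-In 293 T-REx lines express Prl signal sequence+10aa fused to Gaussia luciferase, either constitutively (pcDNA5/FRT) or under the T-REx promoter (pcDNA5/FRT/TO). Cells plated the day before; compounds in DMSO/media (with doxycycline for the inducible line, 24 h) incubated at 37 °C, 5% CO2.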

The subject of assay [6] is BT474 breast tumor cell line. Nature of the assay: BT474 assay (Alamar blue). The following applies: Homo sapiens, BT-474, 72 h. How it is done: as §1
Assay [7] relates to TNFα-FL/Gaussia Luciferase. Nature of the assay: Dox induced TNFα-FL-Gluc assay. In short, it runs like this: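 Stable Flp-In 293 T-REx line expressing full-length TNFα (aa 1-233) fused at its C-terminus to Gaussia luciferase under doxycycline-inducible control. Cells plated the day before, then given compound dilutions in DMSO/media containing doxycycline and incubated at 37 °C, 5% CO2.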

Setting [8] is: HEK-293T T-rex cells, transient transfection, doxycycline, 24 h; read-out: HER3 ss IC50.
[9] abbreviates: Flp-In 293 T-REx cells, doxycycline, 24 hours; read-out: PD1ss Gluc IC50.
[10] abbreviates: NCI-H929, 48 hours, cell viability.
[11] abbreviates: Flp-In 293 T-REx cells, 24 hours; read-out: Prl IC50.
Where [12] appears, read: Flp-In 293 T-REx cells, doxycycline, 24 hours; read-out: TNFa FL Gluc IC50.

Where two headings read alike, the source gives them in different places. Square brackets hold non-standard residues; d marks the D form. Peptide text beside a SMILES is read from it. NMeTrp(1-(4-Br-benzyl)) = CN[C@@H](Cc1cn(Cc2ccc(Br)cc2)c2ccccc12)C(=O)O; Butanoyl(2R-oxy,4-CN) = N#CCC[C@@H](O)C(=O)O; Nva(5,5,5-F3) = N[C@@H](CCC(F)(F)F)C(=O)O; Abu(4,4,4-F3) = N[C@@H](CC(F)(F)F)C(=O)O; NMeBta = CN[C@@H](Cc1csc2ccccc12)C(=O)O; tBuAla = CC(C)(C)C[C@H](N)C(=O)O; NMeL = CN[C@@H](CC(C)C)C(=O)O; NMeA = CN[C@@H](C)C(=O)O

As to `CC(C)C[C@@H]1NC(=O)[C@H](Cc2cn(Cc3cncc(F)c3)c3ccccc23)N(C)C(=O)[C@H](CC(C)C)NC(=O)[C@H](CC(C)C)N(C)C(=O)[C@H](CC(C)C)NC(=O)[C@@H](CCC#N)OC(=O)[C@H](C)N(C)C1=O` [C-35] (HELM PEPTIDE1{L.[meA].[N#CCC[C@@H](O[*:1])C(=O)[*:2]].L.[meL].L.[CN([C@@H](Cc1cn(Cc2cncc(F)c2)c2ccccc12)C(=O)[*:2])[*:1]]}$PEPTIDE1,PEPTIDE1,1:R1-7:R2$$$V2.0), the EC50 worked out at 242 nM in assay [1], 2840 nM in assay [4] (setting [10]) and 1260 nM in assay [6]. Further, the IC50 with HER3ss-Gluc (setting [8]) is 126 nM; in assay [2] (setting [9]) it was 108 nM; in assay [3], 207 nM; in assay [5] (setting [11]), 1250 nM; in assay [7] (setting [12]) it was 373 nM.
Take `CC(C)C[C@@H]1NC(=O)[C@H](Cc2csc3ccccc23)N(C)C(=O)[C@H](CC(C)C)NC(=O)[C@H](CC(C)C)N(C)C(=O)[C@H](CC(C)C)NC(=O)[C@@H](CCC#N)OC(=O)[C@H](C)N(C)C1=O` [C-29] (HELM PEPTIDE1{L.[meA].[N#CCC[C@@H](O[*:1])C(=O)[*:2]].L.[meL].L.[CN([C@@H](Cc1csc2ccccc12)C(=O)[*:2])[*:1]]}$PEPTIDE1,PEPTIDE1,1:R1-7:R2$$$V2.0): the EC50 in assay [1] was found to be 316 nM; in assay [4] (setting [10]), 2640 nM; in assay [6] it was 1340 nM. Moreover, the IC50 was determined as 22 nM in the assay on HER3ss-Gluc (setting [8]); 100 nM in assay [2] (setting [9]); 26 nM in assay [3]; 3400 nM in assay [5] (setting [11]); 314 nM in assay [7] (setting [12]).
Turning to `CC(C)C[C@@H]1NC(=O)[C@H](Cc2cn(Cc3ccc(F)c(F)c3)c3ccccc23)N(C)C(=O)[C@H](CC(C)C)NC(=O)[C@H](CC(C)C)N(C)C(=O)[C@H](CC(C)C)NC(=O)[C@@H](CCC#N)OC(=O)[C@H](C)N(C)C1=O` [C-28] (HELM PEPTIDE1{L.[meA].[N#CCC[C@@H](O[*:1])C(=O)[*:2]].L.[meL].L.[CN([C@@H](Cc1cn(Cc2ccc(F)c(F)c2)c2ccccc12)C(=O)[*:2])[*:1]]}$PEPTIDE1,PEPTIDE1,1:R1-7:R2$$$V2.0), the results for the EC50 in assay [1], in assay [4] (setting [10]) and in assay [6] were 140 nM, 611 nM and 940 nM, respectively. Besides, the IC50 worked out at 60 nM in the assay with HER3ss-Gluc (setting [8]); 27 nM in assay [2] (setting [9]); 61 nM in assay [3]; 428 nM in assay [5] (setting [11]); 125 nM in assay [7] (setting [12]).
Take `CC(C)C[C@@H]1NC(=O)[C@H](Cc2cn(Cc3ccc(Br)cc3)c3ccccc23)N(C)C(=O)[C@H](CC(C)C)NC(=O)[C@H](CC(C)C)N(C)C(=O)[C@H](CC(F)(F)F)NC(=O)[C@@H](CCC#N)OC(=O)[C@H](C)N(C)C1=O` [C-41] (cyclo(L[NMeA][Butanoyl(2R-oxy,4-CN)][Abu(4,4,4-F3)][NMeL]L[NMeTrp(1-(4-Br-benzyl))])): the EC50 in assay [1] was 73 nM; in assay [4] (NCI-H929, 48 h) it was 1280 nM; in assay [6] it was 832 nM. Moreover, the IC50 worked out at 23 nM in the assay on HER3ss-Gluc (read-out: HER3 ss IC50; HEK-293T T-rex cells, transient transfection, doxycycline, 24 h); 19 nM in assay [2] (read-out: PD1ss Gluc IC50; Flp-In 293 T-REx cells, doxycycline, 24 hours); 32 nM in assay [3]; 1010 nM in assay [5] (read-out: Prl IC50; Flp-In 293 T-REx cells, 24 hours); 77 nM in assay [7] (read-out: TNFa FL Gluc IC50; Flp-In 293 T-REx cells, doxycycline, 24 hours).
As to `CCCC[C@@H]1NC(=O)[C@@H](CCC#N)OC(=O)[C@H](C)N(C)C(=O)[C@H](CC(C)C)NC(=O)[C@H](Cc2cn(Cc3ccc(Br)cc3)c3ccccc23)N(C)C(=O)[C@H](CC(C)C)NC(=O)[C@H](CC(C)C)N(C)C1=O` [C-40] (HELM PEPTIDE1{L.[meA].[N#CCC[C@@H](O[*:1])C(=O)[*:2]].[Nle].[meL].L.[CN([C@@H](Cc1cn(Cc2ccc(Br)cc2)c2ccccc12)C(=O)[*:2])[*:1]]}$PEPTIDE1,PEPTIDE1,1:R1-7:R2$$$V2.0), the values for the EC50 in assay [1], in assay [4] (setting [10]) and in assay [6] were 327 nM, 2280 nM and 2150 nM, respectively. For the same compound, the IC50 with HER3ss-Gluc (setting [8]) came to 802 nM; in assay [2] (setting [9]), 48 nM; in assay [3], 122 nM; in assay [5] (setting [11]), 3260 nM; in assay [7] (setting [12]), 184 nM.
In the case of `CC(C)C[C@@H]1NC(=O)[C@H](Cc2cn(Cc3ccc(Br)cc3)c3ccccc23)N(C)C(=O)[C@H](CC(C)C)NC(=O)[C@H](CC(C)C)N(C)C(=O)[C@H](CC(C)(C)C)NC(=O)[C@@H](CCC#N)OC(=O)[C@H](C)N(C)C1=O` [C-39] (cyclo(L[NMeA][Butanoyl(2R-oxy,4-CN)][tBuAla][NMeL]L[NMeTrp(1-(4-Br-benzyl))])), the values for the EC50 in assay [1], in assay [4] (setting [10]) and in assay [6] were 621 nM, 3110 nM and 3570 nM, respectively. The IC50 in the assay on HER3ss-Gluc (setting [8]) stood at 330 nM; in assay [2] (setting [9]), 67 nM; in assay [3], 301 nM; in assay [5] (setting [11]), 3290 nM; in assay [7] (setting [12]), 265 nM.
As for `CC(C)C[C@@H]1NC(=O)[C@@H](CCC#N)OC(=O)[C@H](C)N(C)C(=O)[C@H](CCC(F)(F)F)NC(=O)[C@H](Cc2csc3ccccc23)N(C)C(=O)[C@H](CC(C)C)NC(=O)[C@H](CC(C)C)N(C)C1=O` [C-50] (cyclo(L[NMeBta][Nva(5,5,5-F3)][NMeA][Butanoyl(2R-oxy,4-CN)]L[NMeL])), the figures for the 50% effective concentration (EC50) in assay [1], in assay [4] (setting [10]) and in assay [6] were 1080 nM, 4540 nM and 2450 nM, respectively. The IC50 in assay [2] (setting [9]) was found to be 201 nM; in assay [3], 30 nM; in assay [5] (setting [11]), 9060 nM; in assay [7] (setting [12]) it was 644 nM.
For `CCCC[C@@H]1NC(=O)[C@@H](CCC#N)OC(=O)[C@H](C)N(C)C(=O)[C@H](CC(C)C)NC(=O)[C@H](Cc2cn(Cc3ccc(C(F)(F)F)cc3)c3ccccc23)N(C)C(=O)[C@H](CC(C)C)NC(=O)[C@H](CC(C)C)N(C)C1=O` [C-46] (HELM PEPTIDE1{L.[meA].[N#CCC[C@@H](O[*:1])C(=O)[*:2]].[Nle].[meL].L.[CN([C@@H](Cc1cn(Cc2ccc(C(F)(F)F)cc2)c2ccccc12)C(=O)[*:2])[*:1]]}$PEPTIDE1,PEPTIDE1,1:R1-7:R2$$$V2.0), the EC50 in assay [1] amounted to 640 nM; in assay [4] (setting [10]) it was 3070 nM; in assay [6], 3120 nM. Moreover, the IC50 in assay [2] (setting [9]) was 35 nM; in assay [3], 141 nM; in assay [5] (setting [11]), 15000 nM; in assay [7] (setting [12]), 296 nM.
As for `CC(C)C[C@@H]1NC(=O)[C@H](CC(C)C)N(C)C(=O)[C@H](CC(F)(F)F)NC(=O)[C@@H](CCC#N)OC(=O)[C@H](C)N(C)C(=O)[C@H](CCC(F)(F)F)NC(=O)[C@H](Cc2csc3ccccc23)N(C)C1=O` [C-49] (cyclo(L[NMeBta][Nva(5,5,5-F3)][NMeA][Butanoyl(2R-oxy,4-CN)][Abu(4,4,4-F3)][NMeL])), the EC50 in assay [1] came out at 623 nM; in assay [4] (setting [10]) it was 3370 nM; in assay [6], 1800 nM. For the same compound, the half-inhibitory concentration (IC50) worked out at 17 nM in the assay with HER3ss-Gluc (setting [8]), 168 nM in assay [2] (setting [9]), 22 nM in assay [3] and 550 nM in assay [7] (setting [12]).
